Test results as given in US20190125745A1, “TREATMENT AND DIAGNOSIS OF CANCER” (Rgenix, Inc., priority 2014, published 2019).
Counter-ions that a name gives are not always drawn.

Key:
LXRβ = biological target: T1, LXRβ (Homo sapiens, UniProt P55055); assay: ligand sensing assay (LiSA), LXRβ; assay type: biochemical; conditions: hydrochloride
T1 sequence (P55055 1-460): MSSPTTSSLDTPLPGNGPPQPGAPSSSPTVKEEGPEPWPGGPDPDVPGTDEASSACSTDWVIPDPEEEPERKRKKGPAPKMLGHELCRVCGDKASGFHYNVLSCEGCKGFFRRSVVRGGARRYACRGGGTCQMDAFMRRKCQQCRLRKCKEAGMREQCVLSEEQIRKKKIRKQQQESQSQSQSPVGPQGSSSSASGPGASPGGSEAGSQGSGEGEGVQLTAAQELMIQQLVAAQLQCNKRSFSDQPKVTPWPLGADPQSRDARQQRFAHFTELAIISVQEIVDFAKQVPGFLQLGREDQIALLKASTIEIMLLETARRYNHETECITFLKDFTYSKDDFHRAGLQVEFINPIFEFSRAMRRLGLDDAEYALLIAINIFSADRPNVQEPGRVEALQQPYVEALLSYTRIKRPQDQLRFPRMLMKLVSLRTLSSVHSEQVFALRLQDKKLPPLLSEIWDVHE
Text: As used herein, reference to the activity of an LXR agonist at LXRα and LXRβ refer to the activity as measured using the ligand sensing assay (LiSA) described in Spencer et al. Journal of Medicinal Chemistry 2001, 44, 886-897, incorporated herein by reference. […] For example, the methods of the invention can be performed using an LXRβ agonist having activity for LXRβ that is at least 3-fold greater than the activity of the agonist for LXRα, or having activity for LXRβ that is at least 10-fold greater than the activity of the agonist for LXRα, or having activity for LXRβ that is at least 100-fold greater than the activity of said agonist for LXRα, or having activity for LXRβ that is at least within 3-fold of the activity of the agonist for LXRα. The term “greater activity” in the LiSA assay refers to a lower EC50.

[1] = system: MeWo, HT-144, SK-Mel-2, SK-Mel-334.2 human melanoma cells; assay: Cell invasion assay (trans-well matrigel); assay type: cell-based; conditions: MeWo, 1 μM, 72 hours
Text: FIG. 2. Activation of LXRβ Signaling Suppresses Melanoma Cell Invasion and Endothelial Recruitment. (A) Heat-map depicting microarray-based expression levels of LXR and RXR isoforms in the NCI-60 melanoma cell line collection. The heat map for these genes is extracted from the larger nuclear hormone receptor family heat map (FIG. 3). Color-map key indicates the change in standard deviations for the expression value of each receptor relative to the average expression value of all microarray-profiled genes (>39,000 transcript variants) in each cell line. (B) Cell invasion by 1×10^5 MeWo, 5×10^4 HT-144, 5×10^5 SK-Mel-2, and 5×10^4 SK-Mel-334.2 human melanoma cells. Cells were treated with DMSO, GW3965, T0901317, or Bexarotene at 1 μM for 72 hours and subjected to a trans-well matrigel invasion assay. n=4-8. (C) 5×10^4 MeWo, HT-144, SK-Mel-2, and SK-Mel-334.2 human melanoma cells were tested for their ability to recruit 1×10^5 endothelial cells in a trans-well migration assay, following treatment of the melanoma cells with DMSO, GW3965, T0901317, or Bexarotene at 1 μM for 72 hours. n=4-8. […] Scale bar, 50 μm. *p<0.05, **p<0.01, ***p<0.001, ****p<0.0001.
The cell invasion assay was performed as previously described in detail (Pencheva et al., 2012) using a trans-well matrigel invasion chamber system (354480, BD Biosciences). In brief, various melanoma cells were cultured in the presence of DMSO, GW3965, T0901317, or Bexarotene at 1 μM for 56 hours, after which melanoma cells were switched to starvation media (0.2% FBS) for 16 hours in the presence of each drug. Following starvation, cells were seeded into matrigel-coated trans-well inserts, and the invasion assay was allowed to proceed for 24 hours at […]. For ApoE antibody neutralization experiments, 40 μg/mL 1 D7 anti-ApoE blocking antibody (Heart Institute, University of Ottawa, Ottawa, Canada) or […] anti-IgG control antibody (AB-108-C, R&D Systems, Minneapolis, Minn.) was added to each trans-well insert at the start of the assay.
The cells were then serum starved for 16 hours in 0.2% FBS media in the presence of each corresponding drug or DMSO. Following serum starvation, the cells were subjected to the trans-well invasion assay using a matrigel invasion chamber system (354480, BD Biosciences). Invasion chambers were pre-equilibrated prior to the assay by adding 0.5 mL of starvation media to the top and bottom wells. Meanwhile, cancer cells were trypsinized and viable cells were counted using trypan blue. Cancer cells were then resuspended at a concentration of 2×10^5 cells/1 mL starvation media, and 0.5 mL of cell suspension, containing 1×10^5 cells, was seeded into each trans-well. The invasion assay was allowed to proceed for 24 hours at 37° C. […] Following fixation, the inserts were washed in PBS, cut out, and mounted onto slides using VectaShield mounting medium containing DAPI nuclear stain (H-1000, Vector Laboratories). The basal side of each insert was imaged using an inverted fluorescence microscope (Zeiss Axiovert 40 CFL) at 5× magnification, and the number of DAPI-positive cells was quantified using ImageJ.

[2] = system: B16F10 mouse melanoma cells; assay: Subcutaneous B16F10 tumor growth in C57BL/6 mice; assay type: in vivo
Procedure: FIG. 4. Therapeutic LXR Activation Inhibits Melanoma Tumor Growth. […] Representative tumor images shown correspond to tumors extracted at the final day (d12). n=10-18 (A), 8-10 (B). (C-E) Primary tumor growth by 1×10^6 MeWo (C), […] SK-Mel-334.2 (D), and 2×10^6 SK-Mel-2 (E) human melanoma cells subcutaneously injected into immunocompromised mice. […] Tumor images shown correspond to last day of measurements. n=6-34 (C), 8 (D), 5 (E). (F) 5×10^4 B16F10 cells were injected subcutaneously into C57BL/6-WT mice. Upon tumor growth to 150 mm^3, mice were fed continuously with a control chow or a chow containing GW3965 (150 mg/kg), and tumor growth was measured daily. n=6-13. […] Tumor volume was calculated as (small diameter)^2×(large diameter)/2. […] Scale bars, 5 mm (A-D), 50 μm (J, K), 25 μm (L).
The mice were palpated daily for tumor formation and after detection of tumors measuring […] in volume, the mice were assigned to a control chow or a chow containing each respective LXR agonist: LXR-623 (20 mg/kg/day), WO-2007-002563 Ex. 19 (100 mg/kg/day), WO-2010-0138598 Ex. 9 (10 mg/kg/day or 100 mg/kg/day), or SB742881 (100 mg/kg/day). The LXR drug compounds were formulated in the mouse chow by Research Diets, Inc. Tumor dimensions were measured using digital calipers, and tumor volume was calculated as (small diameter)^2×(large diameter)/2.

O=C(O)Cc1cccc(OCCCN(Cc2cccc(C(F)(F)F)c2Cl)CC(c2ccccc2)c2ccccc2)c1 [GW3965 108, 3-[3-[N-(2-Chloro-3-trifluoromethylbenzyl)-(2,2-diphenylethyl)amino]propyloxy] phenylacetic acid hydrochloride]
greater activity for LXRβ compared to LXRα (LXRβ): 6 fold
greater activity for LXRβ compared to LXRα (LXRβ; row): approximately 6 fold
suppression of cell invasion and endothelial recruitment upon knockdown of ApoE in melanoma cells [1]: blocked
ability to suppress invasion and endothelial recruitment upon knockdown of melanoma LXRβ, but not LXRα ([1]; HT-144): abrogated
primary tumor growth in vivo (FIG. 4) ([2]; mouse, in vivo): inhibit
reduction in the growth of established large B16F10 tumors ([2]; tumors ~150 mm^3 at start, chow 150 mg/kg): roughly 50%
